Laboratory results as given in US8974836B2, “Angiogenesis regulating composition and method for regulating angiogenesis” (Air Water, Inc., priority 2009, dated 2015).
Where two headings read alike, the source gives them in different places.

Legend:
[1] = test system: model mice of oxygen-induced retinal angiogenesis; experiment: Exemplary experiment 4: nitrite versus general-purpose nitrogen monoxide donor drugs, retinal avascular area; type: in vivo, C57BL/6J mouse
Description: Preparation of the model mice of oxygen-induced retinal angiogenesis, fluorescent imaging of retinal vessels and a retinal flat-mount were operated according to exemplary experiment 1.
(§1) Areal ratio of retinal avascular area was calculated pursuant to exemplary experiment 1.

[2] = in vivo; cited from earlier work
[3] = Exemplary experiment 6: plasma concentration of nitrate ions after administration; conditions: P12, average
Description: (§2) Sodium nitrate or sodium nitrite as a test compound was dissolved in physiological saline for injection to prepare a test compound injection of […].
C57BL/6J mouse (SLC) was used as an experimental animal. The model mice of oxygen-induced retinal angiogenesis were prepared according to exemplary experiment 1. […] Thereafter, isoflurane was used to anesthetize the mice, and 150 μl of blood was collected from the abdominal aorta over time. Plasma concentration of nitrate ions was measured by ion exchange chromatography using a normal phase column under the following conditions:
Conditions for Ion Exchange Chromatography • Separation column: Asahipak NH2P-50 4E (4.6 mm×250 mm) • Guard column: Inertsil NH2 (5 μm) (4 mm×10 mm) • Mobile phase: 10 mM of sodium dihydrogenphosphate, 150 mM of sodium perchlorate, 5.0 • Flow rate: 0.7 ml/min • Detection wavelength: 210 nm

[4] = test system: model mice of oxygen-induced retinal angiogenesis; experiment: Exemplary experiment 3: regulation of retinal angiogenesis, administration from start of angiogenesis (P12); type: in vivo, C57BL/6J mouse; conditions: for value of areal ratio of retinal avascular area / value of retinal avascular area: 15 μmol/kg hypodermically once per day P12-P16, average; for reduction of retinal avascular area in comparison with a control group: 15 μmol/kg, administered from the start of retinal angiogenesis (P12)
Description: For the model mice of oxygen-induced retinal angiogenesis, retinal angiogenesis is induced by providing 75% oxygen followed by breeding in room air during P12-P17.
Sodium nitrate or sodium nitrite as a test compound was dissolved in physiological saline for injection to prepare a test compound injection of […].
Preparation of the model mice of oxygen-induced retinal angiogenesis, fluorescent imaging of retinal vessels and a retinal flat-mount were operated according to exemplary experiment 1. However sodium nitrate or sodium nitrite was injected to a cervical region hypodermically once per day in amount of 15 μmol/kg for […] from the 12th day (P12) to the 16th day (P16) after birth. In addition, physiological saline as controls was similarly injected hypodermically instead of test compound for the same period of time.
as §1

[5] = test system: model mice of oxygen-induced retinal angiogenesis; conditions: for retinal avascular area reduced as compared to control group: 15 or 75 μmol/kg once per day P7-P16, versus physiological saline
Description: C57BL/6J mouse (SLC) was used as an experimental animal. […] Neonatal mice were bred from the 7th day (P7) to the 12th day (P12) after birth together with a parent mouse in a cage of high levels of oxygen (75±1% of O2) controlled by oxygen control equipment (PRO-OX110, produced by Reming Bioinstruments Co) to provide high levels of oxygen (75±1% of O2). Retinal angiogenesis was induced by breeding under normoxic condition (21% of O2) from the 12th day to the 17th day after birth. […] In addition, physiological saline as controls was similarly injected hypodermically instead of test compound.
Fifty micro grams per animal of fluorescein-conjugated dextran (FITC-dextran; M.W. 2×10^6, produced by SIGMA) were systemically perfused from the left ventricle under deep anesthesia with pentobarbital on the 17th day after birth (P17). After the perfusion, eyes of mouse were removed and fixed in a 4% paraformaldehyde phosphate buffer for 4-12 hours. After the fixation, the cornea and the lens were excised from eye, and the residual hyaloid artery was removed by micro tweezers. The retina was separated under a microscope, and subsequently set flat and embedded in [sequence] (produced by Vector Laboratories Inc.) for preparation of a retinal flat-mount.
Flat mounted retinas were imaged with a high sensitivity CCD camera under a fluorescent inverted microscope (Olympus IX71). A value of total retinal area and a value of retinal avascular area in obtained image were converted to numeric data by Photoshop CS4 extended (Adobe), and a value of areal ratio of retinal avascular area in comparison with the value of total retinal area was calculated by the following equation: value of areal ratio of retinal avascular area=value of retinal avascular area (μm^2)/value of total retinal area (μm^2)×100

[6] = test system: model mice of oxygen-induced retinal angiogenesis; experiment: Exemplary experiment 2: suppression of pathologic neovascularization (pathological vessels extending into the vitreum); type: in vivo, C57BL/6J mouse; conditions: for number of pathological vessels breaking the inner limiting membrane and extending into the vitreum: 15 or 75 μmol/kg once per day P7-P16, P17, FIG. 2, versus physiological saline
Description: The effect of sodium nitrate and sodium nitrite for suppression of pathologic neovascularization by oxygen-induced retinal vascularized model was evaluated.
as §2
C57BL/6J mouse (SLC) was used as an experimental animal. The model mice of oxygen-induced retinal angiogenesis were prepared according to exemplary experiment 1. Sodium nitrate or sodium nitrite was injected to a cervical region hypodermically once per day in amount of 15 or 75 μmol/kg for ten days from the 7th day (P7) to the 16th day (P16) after birth. In addition, physiological saline as controls was similarly injected hypodermically instead of test compound.
On the 17th day after birth (P17), the mice were euthanised by overdose of pentobarbital, and eyes were removed together with optic nerve. The eyes were washed in physiological saline, excessive tissues were excised, and the eyes were thus fixed in a 4% paraformaldehyde phosphate buffer for 12 hours. After the fixation, the eyes were dehydrated by immersing in a graded ethanol series of 70-100% sequentially and were embedded in paraffin.

[7] = test system: methemoglobinemia; conditions: reported for Rodentia; cited from earlier work
[8] = test system: model mice of oxygen-induced retinal angiogenesis; experiment: Exemplary experiment 5: nitrite versus anti-VEGF antibody, retinal avascular area; type: in vivo, C57BL/6J mouse; conditions: 15 μmol/kg hypodermically once per day P7-P16, average
Description: Using the model mice of oxygen-induced retinal angiogenesis, a comparison was made about retinopathy treatment effect between nitrite and an anti-VEGF antibody used for treatment of progressive colorectal cancer, age-related macular degeneration and so on.
Sodium nitrite as a test compound was dissolved in physiological saline for injection to prepare a test compound injection of 3 μmol/ml. For a comparative example, a murine monoclonal anti-VEGF antibody (produced by SANTACRUZ BIOTECHNOLOGY, INC.) was condensed to prepare 500 μg IgG/ml of an injection for the comparative example.
Preparation of the model mice of oxygen-induced retinal angiogenesis, fluorescent imaging of retinal vessels and a retinal flat-mount were operated according to exemplary experiment 1. Sodium nitrite was injected to a cervical region hypodermically once per day in amount of 15 μmol/kg for ten days from the 7th day (P7) to the 16th day (P16) after birth. The anti-VEGF antibody was injected through the corneal limbus to the vitreous body with a microsyringe equipped with a 33G hypodermic needle, by cutting mice eyelids open when oxygenation ended (on the 12th day alter birth).
as §1

[9] = 20 μmol/kg hypodermically once per day P7-P16, average
[10] = 75 μmol/kg hypodermically once per day P7-P16, evaluated P17, average
[11] = 15 μmol/kg hypodermically once per day P7-P16, average
[12] = 15 μmol/kg hypodermically once per day P7-P16, evaluated P17, average

In the case of `O=[N+]([O-])OCC(CO[N+](=O)[O-])O[N+](=O)[O-]` [NTG, nitroglycerin], the “value of areal ratio of retinal avascular area” value [1, 9] is reported as 21.36%, the “value of retinal avascular area” value [1, 9] is reported as 1456421.33 μm^2 and the “retinal avascular area increased in comparison with a group administered with nitrite” value ([1]; SNP 2 μmol/kg, NTG 20 μmol/kg versus sodium nitrite 15 μmol/kg, P7-P16) is reported as “approximately 3.3 times”. The “reduction of avascular area (typical symptom of retinopathy), in words” value ([1]; SNP 2 μmol/kg, NTG 20 μmol/kg, once per day P7-P16) was “Neither SNP nor NTG was observed to reduce”.
For `O=[N+]([O-])[O-].[Na+]` [sodium nitrate], the “nitrate having entered systemic circulation secreted in saliva” value [2] is given as “approximately 25%”, the “portion of nitrate in saliva reduced to nitrite by dental bacteria” value [2] is given as “approximately 30%” and the “maximum plasma concentration of nitrate ions after single-dose administration” value ([3]; 15 μmol/kg subcutaneously in cervical region) is given as 135.38 µmol/L. The “maximum plasma concentration of nitrate ions after single-dose administration” value ([3]; 75 μmol/kg subcutaneously in cervical region) was 194.9 µmol/L, the “value of areal ratio of retinal avascular area” value [4] was 8.76% and the “value of retinal avascular area” value [4] was 506451.72 μm^2. For the same molecule, the “reduction of retinal avascular area in comparison with a control group” value [4] was “approximately 40%”, the “value of areal ratio of retinal avascular area” value [5, 10] was 12.7% and the “value of retinal avascular area” value [5, 10] was 842271.02 μm^2. The “retinal avascular area reduced as compared to control group” value [5] was “approximately 20%” and the “number of pathological vessels breaking the inner limiting membrane and extending into the vitreum” value [6] was “decreased”.
For `O=NO` [sodium nitrite], the “value of areal ratio of retinal avascular area” value [1, 11] is listed as 6.44%, the “value of retinal avascular area” value [1, 11] is listed as 417863.94 μm^2 and the “maximal no-effect dose for methemoglobinemia” value [7] is listed as 84 mg/kg/day. The “value of areal ratio of retinal avascular area” value [4] was 9.3%, the “value of retinal avascular area” value [4] was 621218.70 μm^2 and the “reduction of retinal avascular area in comparison with a control group” value [4] was “approximately 40%”. The “value of areal ratio of retinal avascular area” value [5, 12] was 6.44%, the “value of retinal avascular area” value [5, 12] was 417863.94 μm^2 and the “value of areal ratio of retinal avascular area” value [5, 10] was 10.01%. For the same molecule, the “value of retinal avascular area” value [5, 10] was 571705.28 μm^2, the “retinal avascular area reduced as compared to control group” value [5] was 40-60% and the “value of areal ratio of retinal avascular area” value [8] was 9.3%. The “value of retinal avascular area” value [8] was 621218.70 μm^2, the “value of areal ratio of retinal avascular area” value ([8]; listed as nitrite) was 9.3% and the “pathological vessels reduced as compared with a control” value ([6]; 75 μmol/kg once per day P7-P16, P17) was “approximately 30%”. For the same molecule, the “number of pathological vessels breaking the inner limiting membrane and extending into the vitreum” value [6] was “decreased”.
